Results on 2 molecules are retold here after US20060111447A1, “Inhibiting progressive cognitive impairment” (priority 2002, published 2006).

Like-named read-outs stand apart in the source and are kept apart here.

In one series the test system is sAPPα. The series is described as follows: sAPPα levels in SY5Y neuroblastoma cells (6E10 immunoreactivity, Western blot). It is filed as cell-based. To be noted: 1 μM and 5 μM. (In general: Immunoblotting shows a protein as a band on a membrane.)
For the next series, the system named is complement ClqB. Conditions: in vivo; cited from earlier work.
In series [1] the test system is Aβ40. Conditions: CHO-APPswe cells, 0.1 micromolar, 24 hours. The protocol:
(§1) The amount of amyloid β peptides produced was measured by an ELISA assay from BioSource (Camarillo, Calif.). Samples were diluted 1:10 in buffer (0.05% (v/v) Tween-20, 1 mM Pefabloc protease inhibitors) followed by centrifugation for 20 minutes at 4° C. Total Aβ40 or Aβ42 were measured by sandwich ELISA following the manufacturer's instructions.

Series [2] deals with Aβ42. Conditions: CHO-APPswe cells, 0.1 micromolar, 24 hours. Here is the method: as §1
The subject of series [3] is γ-secretase. Here is the method:
(§2) FIG. 11A-B. CHO cells were transfected with APPswe and LacZ (open bars) or with APPswe and hCOX-2(filled bars), as in FIG. 10A-C.
CHO cells were transfected with APPswe and LacZ (open bars) or with APPswe and hCOX-2 (filled bars), as in the preceding Section 11, and γ-secretase and Aβ42 levels were measured.

Series [4] has as its system Aβ40. Conditions: CHO cells with APPswe and hCOX-2, nimesulide concentrations down to 10^−12 M. From the text:
FIG. 10A-C. […] (C) Aβ42 levels in CHO cells transfected with APPswe and LacZ (open bars) or with APPswe and hCOX-2 (filled bars). Data are expressed as means±S.E.M. (percent of control LacZ transfection from three independent studies).
Using an adenovirus vector, hCOX-2 was transfected and expressed in CHO cells which had been stably transfected with APPswe (see above).

The conditions of series [5]: mice.
The next series is described as follows: in vivo. To be noted: B6SJ1, mouse, brain relative to serum, oral, 1500 mg/kg of diet, level of nimesulide in the brain relative to serum levels, mice, nimesulide 1500 mg/kg of diet for three months, brain parenchyma.
Series [6] has as its system γ-secretase. To be noted: CHO-APPswe cells, 0.1 micromolar, 24 hours.
Another series in a line: clinical. Conditions: human, po, 100 mg twice daily. Here is the method:
A tolerability study was performed in elderly human subjects (Aisen et al., 2002, Neurology 58(7):1050-1054).

For series [7] the following is noted: cited from earlier work.
The next series has as its system PGE2. To be noted: mice, same brain, nimesulide 1500 mg/kg of diet for three months.
For series [8], the system named is Aβ42.
Text: as §2

Setting [9] is: CHO-APPswe cells transfected with hCOX-2, 10^−9 molar.

As to `CS(=O)(=O)c1ccc(C2=C(c3ccccc3)C(=O)OC2)cc1` [Rofecoxib], in the series on sAPPα, the “levels of sAPPα relative to controls (6E10 immunoreactivity)” value is “decreased”.

In the case of `CS(=O)(=O)Nc1ccc([N+](=O)[O-])cc1Oc1ccccc1` [nimesulide, 4-nitro-2-phenoxymethanesulfonanilide], the “effect on hCOX-2 induced increase of ClqB levels in the brain” value in the series on complement ClqB was “able to block that increase”. Besides, in the series with Aβ40 [1], the “decrease of the amount of Aβ40” value is recorded as 20-25%. For the same molecule, the “decrease of the amount of Aβ42” value with Aβ42 [2] is 20-25%. The “effect on hCOX-2 mediated increase of γ-secretase activity” value in the series on γ-secretase [3] (setting [9]) is listed as “decreased to control levels”. In addition, in the series on γ-secretase [3] (both hCOX-2 and LacZ-transfected CHO-APPswe cells, 10^−6 molar), the “additional decrease of γ-secretase levels” value was 10-15%. For the same molecule, the “effect on hCOX-2 mediated increase in Aβ40 levels” value in the series on Aβ40 [4] is “virtually nullified”. The necropsy findings result in series [5] (nimesulide 1500 mg/kg of diet (50 mg/kg per day) for 3 months) was “did not demonstrate any gross alterations or renal or intestinal abnormalities”. Besides, the tolerability entry in series [5] (nimesulide 1500 mg/kg of diet for 3 months) was “well tolerated”. Moreover, in the series “in vivo”, the Kp (as a rule, the ratio of the level in a tissue or fluid to that in plasma or blood) at 3 months is ~0.1. Also, the “inhibition of γ-secretase activity” value with γ-secretase [6] is “approximately 40%”. In addition, the concentration at 24 weeks was ~1 µM in the series “clinical” (brain) and ~10 µM in the series “clinical” (serum). Besides, the “tolerability, long term treatment” value in series [7] (clinical study, up to 104 weeks) is recorded as “well tolerated”. Besides, the “cognitive benefit in AD patients” value in [7] (twelve-week clinical trial) was “no cognitive benefit was observed”. In addition, the “tolerability in AD patients” value in series [7] (twelve-week clinical trial) is reported as “well tolerated”. For the same molecule, the “decrease of PGE2 content” value with PGE2 is recorded as “approximately 50%”. The “effect on hCOX-2 increased Aβ42 concentration” value in the series with Aβ42 [8] (CHO-APPswe cells transfected with hCOX-2, 10^−6 molar) is reported as “decreased to essentially control levels”; in the series on Aβ42 [8] (setting [9]), “slightly decreased”.
